Source: patent US20230181751A1, “FORMULATION OF PURE DIMETHOXY CURCUMIN-HUMAN SERUM ALBUMIN AND A PROCESS FOR THE PREPARATION THEREOF” (SREE CHITRA TIRUNAL INSTITUTE FOR MEDICAL SCIENCES AND …, priority 2020, published 2023)
In brackets after ≈: the same amount, converted by molar mass. Like-named read-outs stand apart in the source and are kept apart here.

Key:
solubility = assay type: physicochemical; conditions: water, before conjugation
[1] = storage stability of DMCHSA solution (UV and FTIR spectra); assay type: physicochemical
Experimental: The liquid stability of the product was analysed at 24 h interval for 48 h or 72 h. The UV spectra recorded at different storage period are shown
FTIR spectra are shown to substantiate the chemical degradation after 48 h of storage of DMCHSA solution.
The lyophilized samples were used for respective periods as prepared for liquid stability, were lyophilized and recorded FTIR spectrum.
Thus, liquid stability of DMCHSA stored for […] is evident.

[2] = tested on: Fibroblast cell line (L929); assay: MTT cytotoxicity assay, DMCHSA versus free DMC; assay type: cell-based, mouse; conditions: similar molar concentrations, 24 h-48 h
Experimental: Cancer cell lines (A549,MCF-7), Fibroblast cell line (L929), and primary cells (ECs and CCs) were cultured in 96-well plates containing 100 µl medium, kept this plate in CO2 incubator (5% CO2) at 37° C. for 24 h. DMCHSA solution was freshly prepared by dissolving the lyophilized conjugate in DMEM F12 medium and added (0.05 mg/ml, 0.1 mg/ml, 0.2 mg/ml, 0.4 mg/ml) in 96 well plate for 24 h. […] In all cultures standard MTT assay quantified viable cells after treating with DMCHSA/free DMC. Briefly, commercial MTT (0.5 mg/ml) reagent was dissolved in medium. This solution was filtered through a 0.22 µm filter and stored at 2 - 8° C. After removal of 100 µl medium, MTT dye solution was added and the plates were incubated at 37° C. for 4 h in a humidified 5% CO2 incubator, followed by 100 µl of DMSO added to each well, and mixed thoroughly to dissolve the dye crystals.
The absorbance was measured using an ELISA plate reader at 570 nm. High optical density readings corresponded to a high intensity of dye colour. The fractional absorbance was calculated by the formula: % Cell survival/PR = Mean absorbance in test × 100 Mean absorbance in control

[3] = cited from earlier work
[4] = cited from earlier work; remark: listed apart in the source

Q: Which solubility (solubility) does the source give for `COc1cc(/C=C/C(=O)CC(=O)/C=C/c2ccc(O)c(OC)c2)ccc1O` [DMC, (1E,6E)-1,7-bis(4-hydroxy-3-methoxyphenyl)hepta-1,6-dienne-3,5-dione] here?
A: 20 µM (≈ 7.37 µg/mL)

Q: What about the UV-Vis spectral stability [1] of the same compound?
A: degrading free curcumin in 2h

Q: What about the “cytotoxicity on fibroblasts, DMCHSA compared with free DMC” value [2] of the same compound?
A: less cytotoxic

Q: And the “solubility in acetone, DMSO and ethyl ether” value [3]?
A: very soluble

Q: What about the “solubility in ethyl alcohol, glacial acetic acid and propylene glycol” value [3] of the same compound?
A: soluble

Q: And the “solubility in water, petroleum ether and benzene” value [3]?
A: poorly soluble

Q: What about the “half-life of DMC” value ([4]; in the presence of protein) of the same compound?
A: 1 to 2 h

Q: What about the “half-life of DMC” value ([4]; physiological pH, without protein) of the same compound?
A: a few minutes
